Source: patent publication US6541463B1, “Inhibitors of type 5 and type 3 17β-hydroxysteroid dehydrogenase and methods for their use” (Endorecherche, Inc., priority 1998, dated 2003)
Like-named read-outs stand apart in the source and are kept apart here.

Legend:
[1] = tested on: Shionogi mouse mammary carcinoma cells; assay: Antiandrogenic activity: inhibition of DHT-induced proliferation of Shionogi cells; type: cell-based; conditions: for IC50: Mus musculus
Procedure: The manner in which the inhibition is determined is described in “Other Tests; B-Androgenic/Antiandrogenic Activity”. Lower numbers are desirable. ND means that a determination was not done.
(§1) Androgenic/antiandrogenic activity of some preferred compounds has been measured using the Shionogi mouse mammary carcinoma cells.
(§2) Minimal essential culture medium (MEM), non-essential amino acids, and fetal calf serum were purchased from Flow Laboratories. In order to remove endogenous steroids, serum was incubated overnight at 4° C. with 1% activated charcoal (Norit A, Fisher) and 0.1% Dextran T-70 (Pharmacia). A 2-h supplementary adsorption was performed at 25° C. in order to further remove protein-bound steroids. Serum was also inactivated by a 20-min incubation at 56° C.
(§3) 5α-dihydrotestosterone (DHT) was obtained from Steraloids. The antiandrogen hydroxyflutamide (OH-FLU) was kindly supplied by Drs. T. L. Nagabuschan and R. Neri (Schering Corporation, Kenilworth, U.S.A.).
(§4) Shionogi male mice bearing androgen-sensitive mammary tumors were obtained from Drs. Keishi Matsumoto, Osaka, Japan, and Yvonne Lefebvre, Ottawa, Canada. For primary culture, tumors were excised and washed in ice-cold sterile 25 mM Hepes buffer (137 mM NaCl; 5 mM KCl; 0.7 mM Na2HPO4; 10 mM glucose, pH 7.2). After mincing with scissors, the tumor minces were digested for 2 h at 37° C. in Hepes buffer containing 3.8 mg/ml collagenase (Clostridium, Boehringer), 1.5 mg/ml hyaluronidase II (Sigma), and 3% bovine serum albumin fraction V (Schwartz-Mann). Dispersed cells were collected by centrifugation (500×g for 10 min), washed twice by suspension in minimal essential medium (MEM) containing 5% dextran-coated charcoal-treated fetal calf serum (DCC-FCS), 1% non-essential amino acids, 10 IU/ml penicillin, 50 μg/ml streptomycin, and 100 nM dihydrotestosterone (DHT) (Steraloids).
(§5) Cells were plated in the same medium at a density of 75 000 cells/ml in 75 cm^2 flasks under an atmosphere of 5% carbon dioxide in air at 37° C. The medium was changed weekly. The steroids and antisteroids were dissolved in ethanol and kept in stock solutions chosen to yield final ethanol concentrations less than 0.01% in the culture medium.
(§6) Cells were subcultured at near-confidence by gentle digestion in a solution of 0.1% pancreatin (Flow Laboratories) in Hepes buffer containing 3 mM ethylenediaminetetraacetic acid (EDTA) (pH 7.2). Cells were pelleted by centrifugation, resuspended in culture medium, counted in a Coulter counter, and replated as described above. Soft agar cloning was performed as described (Stanley et al., Cell 10: 35-44, 1977) in the presence of 100 nM DHT.
(§7) Cells were plated in 24-well plates at a density of 20 000 cells/well. The indicated increasing concentrations of agents were added to triplicate dishes, and cells were grown for 10-12 days with changes of medium every 3-4 days. Cell number was measured by direct counting in a Coulter counter.
(§8) ED50 values of action of DHT and glucocorticoids were calculated according to a least-square regression as described (Rodbard, Endocrinology 94: 1427-1431, 1974). Statistical significance was calculated according to a multiple-range test (Kramer, Biometrics 12: 307-310,1956).

[2] = tested on: Shionogi mouse mammary carcinoma cells; assay: Androgenic activity: stimulation of proliferation of Shionogi cells; type: cell-based
Procedure: In column 9, the androgenic activity of preferred type 5 inhibitors expressed as the percentage of stimulation of proliferation of Shionogi cells at concentrations of 10^−7 M (left number) and 10^−6 M (right number) of inhibitor. The manner in which the stimulation is determined is described in “Other Tests; B-Androgenic/Antiandrogenic Activity”. Lower numbers are desirable. ND means that a determination was not done.
as §1, §2, §3, §4, §5, §6, §7, §8

[3] = Table 4′, DHT-induced proliferation, E^−6 (10^−6 M)
[4] = Table 4′, DHT-induced proliferation, E^−7
[5] = read-out: Antiandrogenic Activity Shionogi, DHT [IC50]

Row | SMILES | Antiandrogenic Activity Shionogi, DHT E^−6 ([1]; with DHT, E^−6) | Antiandrogenic Activity Shionogi, DHT E^−7 ([1]; with DHT, E^−7) | Androgenic Activity Shionogi, Basal E^−6 ([2]; E^−6) | Androgenic Activity Shionogi, Basal E^−7 ([2]; E^−7) | Antiandrogenic Activity Shionogi, DHT E^−6 [1, 3] [%] | Antiandrogenic Activity Shionogi, DHT E^−7 [1, 4] | Androgenic Activity Shionogi, Basal E^−6 ([2]; Table 4′, E^−6) [%] | Androgenic Activity Shionogi, Basal E^−7 ([2]; Table 4′, E^−7) | further results
1 | CC12C=CC(=O)C=C1C=CC1C2CCC2(C)C(=O)C3(CCCCC3)CC12 (stereo not shown) [CS-204] | −13 | −25 | −17 | 0 | – | – | – | – | –
2 | CC1(C)CCC2(CCC3C4CCc5ccccc5C4CCC32C)OC1=O (stereo not shown) [CS-224] | – | – | – | – | −11 | 23% | 0 | 17% | –
3 | CC(=O)O[C@]1(C)C(=O)CCC2C3C=C(C)C4=CC(=O)C=C[C@]4(C)C3CC[C@@]21C (stereo partly shown) [CS-237] | −106 | −51 | −29 | −22 | – | – | – | – | IC50 ([1]; with DHT, value in square brackets on second line, read-out: Antiandrogenic Activity Shionogi DHT [IC50 (nM)]): 95 nM
4 | CSCCOc1ccc2c(c1)CCC1C2CCC2(C)C1CCC21CCCC(=O)O1 [CS-242, 3-Methylthioethyloxy-1,3,5(10)-estratrien-17(R)-spiro-2′-(6′-oxo) Tetrahydropyran] | – | – | – | – | −66 | 9% | −32 | 0% | –
5 | CCC(=O)O[C@]1(C(C)=O)CCC2C3C=C(C)C4=CC(=O)C[C@H](C)[C@]4(C)C3CC[C@@]21C (stereo partly shown) [CS-243] | – | – | – | – | – | – | – | – | Antiandrogenic Activity Shionogi, DHT ([1]; E^−6): −129; Antiandrogenic Activity Shionogi, DHT ([1]; E^−7): −102; IC50 [1, 5]: 11 nM; Androgenic Activity Shionogi, Basal ([2]; E^−6): −23; Androgenic Activity Shionogi, Basal ([2]; E^−7): −13
6 | CCCC(=O)OC1(C(C)=O)CCC2C3C=C(C)C4=CC(=O)CC(C)C4(C)C3CCC21C (stereo not shown) [CS-245] | – | – | – | – | – | – | – | – | Antiandrogenic Activity Shionogi, DHT ([1]; E^−6): −109; Antiandrogenic Activity Shionogi, DHT ([1]; E^−7): −106; IC50 [1, 5]: 12 nM; Androgenic Activity Shionogi, Basal ([2]; E^−6): −34; Androgenic Activity Shionogi, Basal ([2]; E^−7): −28
7 | C[C@]12CCC3c4ccc(O)cc4CCC3C1CC[C@@]21CCCC(=O)O1 (stereo partly drawn) [EM-919, 1,3,5(10)-estratrien-3-ol-17(R)-spiro-2′(6′-oxo)tetrahydropyran] | – | – | – | – | −95 | +38% | −17 | +73% | IC50 ([1]; Table 4′, bracketed values, read-out: Antiandrogenic Activity Shionogi, DHT [IC50 (nM)]): 609 nM
8 | CC1=C[C@@H]2[C@H](CC[C@]3(C)C(=O)C4(CCCCC4)C[C@@H]23)[C@@]2(C)CCC(=O)C=C12 [EM-925] | −7 | 15 | −4 | 11 | – | – | – | – | –
9 | COC(=O)CCCC(=O)O[C@]1(C(C)=O)CC[C@H]2[C@@H]3C=C(C)C4=CC(=O)CC[C@]4(C)[C@H]3CC[C@@]21C [EM-1007, 6-Methyl-4,6-pregnadien-17α-ol-3,20-dione 4′-Carbomethoxybutyrate] | – | – | – | – | – | – | – | – | Antiandrogenic Activity Shionogi, DHT ([1]; E^−6): −76; Antiandrogenic Activity Shionogi, DHT ([1]; E^−7): −14; Androgenic Activity Shionogi, Basal ([2]; E^−6): −31; Androgenic Activity Shionogi, Basal ([2]; E^−7): 0
10 | CC1CCC2(CCC3C4CCc5ccccc5C4CCC32C)OC1=O (stereo not shown) [EM-1025] | – | – | – | – | −25 | −14% | 0 | 5% | –
11 | CCCC(=O)O[C@]1(C)C(=O)CCC2C3C=C(C)C4=CC(=O)CC[C@]4(C)C3CC[C@@]21C (stereo partly shown) [EM-1078] | −72 | −79 | 45 | 5 | – | – | – | – | –
12 | CCC[C@@H]1CC2C3C=CC4=CC(=O)CC[C@]4(C)C3CC[C@]2(C)C1=O (stereo partly shown) [EM-1097] | −71 | −3 | −12 | 18 | – | – | – | – | –
